Test results from patent US12038430B2, “Methods for high-content drug screening” (The Regents of the University of California, priority 2018, dated 2024).

Tested on: human wildtype CFTR
Assay: Iodide transport / YFP quenching CFTR activation assay in FRT cells on micropillar array
Format: cell-based
Conditions: 10 μM forskolin in alginate hydrogel, 10 min contact, FRT cells expressing human CFTR and YFP, versus neighboring area without forskolin
Description: FRT cells stably expressing human wildtype CFTR and yellow fluorescent protein YFP-H148/I152L were cultured on polyester transwell filters until they formed a tight monolayer (electrical resistance >3 kOhm·cm^2), as previously described in the art. The cell culture medium was then replaced with a viscous solution consisting of 2% methylcellulose (about 41,000 daltons, Sigma-Aldrich) in PBS. The cell layer was contacted with a 10×10 micropillar array for 10 min, and then the viscous solution was rinsed. For transport measurement, an iodide-containing solution (PBS with 120 mM chloride was replaced by iodide) was added manually on top of the cell layer. YFP fluorescence of the entire cell culture area was monitored for 5 min at 10 Hz using a 2× magnification lens (CFI Plan Apo Lambda 2X, Nikon, Melville, NY) with EMCCD camera detector (C9100, Hamamatsu). YFP fluorescence is reduced as the added extracellular iodide is transported into cell cytoplasm through activated CFTR. The time course of fluorescence for each of the 100 locations, each integrated over the 100-μm diameter circular cell area overlying the corresponding micropillar well, was determined using ImageJ. […]
CFTR function was determined from the kinetics of YFP fluorescence quenching following addition of an iodide-containing solution on the apical surface of the cell monolayer. […]

## C=C[C@@]1(C)CC(=O)[C@]2(O)[C@@]3(C)[C@@H](O)CCC(C)(C)[C@@H]3[C@H](O)[C@H](OC(C)=O)[C@@]2(C)O1 [Forskolin, forskolin]
  increase of initial curve slope of YFP fluorescence quenching (CFTR activation): more than 14 fold
